Data: patent US12161650B2, “Pharmaceutical compositions comprising a ryanodine receptor modulator and uses thereof” (priority 2021, dated 2024)
Read-outs that look alike come from different tables or passages of the source.

Key:
Assay type in all cases: in vivo, human (healthy male volunteers)
[1] = Phase 1 clinical trial, Part II multiple ascending doses over 14 days, plasma pharmacokinetics; conditions: for Cmax / Tmax / AUC(0-t) / AUC / half-life: male, human, plasma; for AUC(0-t): read-out: AUC0-24
Protocol: (§1) A Phase 1, randomized, double-blind, placebo-controlled clinical trial was performed to assess the safety and pharmacokinetics (PK) of Compound I after single, escalating, and repeated oral doses in health male volunteers.
4-[(7-methoxy-2,3-dihydro-1,4-benzothiazepin-4(5H)yl)methyl]benzoic acid hemi-fumarate (Compound I) was administered in a gastro-resistant tablet according to Example 1. The formulation contained 20 mg, 40 mg, or 200 mg Compound I (based on the mass of 4-[(7-methoxy-2,3-dihydro-1,4-benzothiazepin-4(5H)yl)methyl]benzoic acid). Placebo tablet according to Example 4 was used as comparator.
In Part II, participants from groups I, J, K, and L received repeated doses of 20 mg, 60 mg, 120 mg, or 240 mg Compound I, respectively, or corresponding placebo once daily over a period of 14 days. Forty-one subjects completed Part II: 7/7/8/7 for cohorts I, J, K, L, and twelve placebo.
In Part II, blood samples were collected from each participant as follows: Day 1: 12 samples from the pre-morning dose up to 16 h (pre-dose, 0.25, 0.5, 1, 1.5, 2, 3, 4, 6, 8, 12, and 16 h), Days 2-13: 12 samples at pre-doses (i.e., morning dose); Day 14: 16 samples from the pre-morning dose up to 96 (D14 pre-dose, 0.25, 0.5, 1, 1.5, 2, 3, 4, 6, 8, 12, and 16 h and D15-18: 1 sample before theoretical morning dosing.
The area under the plasma concentration-time curve was calculated using a combined linear and logarithmic trapezoidal rule. The interpolation was linear in the constant and ascending parts of the plasma concentration-time profiles. The interpolation was logarithmic in the descending parts.
For Part II, the same approach was used on AUCτ (Day 14) respectively AUC24 (Day 1), and Cmax.
For each group and treatment, descriptive statistics (N, arithmetic mean, standard deviation, minimum, median, maximum, coefficient of variation, geometric mean, and geometric CV, as appropriate) were calculated for the concentrations and pharmacokinetic parameters of Compound I.
Plasma and muscle samples were analyzed by LC-MS/MS method.

[2] = Phase 1 clinical trial, Part II, muscle biopsy: concentration in quadriceps muscle; conditions: for Kp (total muscle concentration divided by plasma concentration) / Kp: muscle Day 13 / plasma Day 14 at 3 hours post dose, geom. mean (geom. % CV); for Kp: quadriceps muscle / plasma, read-out: Kpu (unbound muscle concentration divided by plasma concentration)
Protocol: For Study part II (for all groups), Concentrations of Compound I were determined in muscle by performing muscle biopsy on quadriceps muscle on day 13, at least 3 hours after morning dose. Plasma and muscle samples were analyzed by LC-MS/MS method. Muscle biopsy was performed to assess the concentration of Compound I in quadriceps muscle. The biopsy was performed on Day 13 at 3 hours post dose at least. Table 9 summarizes the ratios of unbound respective total concentration at Day 13 at 3 hours post dose divided by the plasma concentration on Day 14 at 3 hours post dose.

[3] = Phase 1 clinical trial, safety of single and repeated oral doses
Protocol: as §1
The primary objective was to assess the safety of escalating single oral doses of Compound I compared with placebo in healthy male volunteers. The secondary objective was to measure plasma pharmacokinetic (PK) parameters of Compound I.
The primary objective was to assess the safety of escalating repeated oral doses of Compound I over 14 days compared with placebo in healthy male volunteers. The secondary objective was to measure plasma pharmacokinetic (PK) parameters of Compound I and to assess the concentration of Compound I in quadriceps muscle.

[4] = geometric means across dose groups 20-240 mg, 14-day repeated administration

COc1ccc2c(c1)CN(Cc1ccc(C(=O)O)cc1)CCS2.O=C(O)/C=C/C(=O)O [Compound I, 4-[(7-methoxy-2,3-dihydro-1,4-benzothiazepin-4(5H)yl)methyl]benzoic acid hemifumarate]
Day at which steady-state was attained ([1]; 240 mg cohort): 5 days | Day at which steady-state was attained ([1]; 20, 60, and 120 mg cohorts): 4 days | Time to steady-state ([1]; daily treatment, across cohorts): 3 to 7 days | Accumulation ratio based on AUC [1, 4]: 1.4-1.8 | Accumulation ratio based on Cmax [1, 4]: 1.4-1.8 | Cmax ([1]; oral, 20 mg, 20 mg once daily, Day 1, geom. mean (geom. % CV), n = 8): 2200 ng/mL | Tmax ([1]; oral, 20 mg, 20 mg once daily, Day 1, median (range), n = 8, read-out: tmax): 2.52 h | Cmax ([1]; oral, 20 mg, 20 mg once daily, Day 14, geom. mean): 3110 ng/mL | Tmax ([1]; oral, 20 mg, 20 mg once daily, Day 14, median, read-out: tmax): 3 h | Cmax ([1]; oral, 60 mg, 60 mg once daily, Day 1, geom. mean): 6090 ng/mL | Tmax ([1]; oral, 60 mg, 60 mg once daily, Day 1, median, read-out: tmax): 3 h | Cmax ([1]; oral, 60 mg, 60 mg once daily, Day 14, geom. mean): 8840 ng/mL | Tmax ([1]; oral, 60 mg, 60 mg once daily, Day 14, median, read-out: tmax): 1.45 h | Cmax ([1]; oral, 120 mg, 120 mg once daily, Day 1, geom. mean): 11500 ng/mL | Tmax ([1]; oral, 120 mg, 120 mg once daily, Day 1, median, read-out: tmax): 3 h | Cmax ([1]; oral, 120 mg, 120 mg once daily, Day 14, geom. mean): 16300 ng/mL | Tmax ([1]; oral, 120 mg, 120 mg once daily, Day 14, median, read-out: tmax): 3.5 h | Cmax ([1]; oral, 240 mg, 240 mg once daily, Day 1, geom. mean): 23900 ng/mL | Tmax ([1]; oral, 240 mg, 240 mg once daily, Day 1, median, read-out: tmax): 3 h | Cmax ([1]; oral, 240 mg, 240 mg once daily, Day 14, geom. mean): 34900 ng/mL | Tmax ([1]; oral, 240 mg, 240 mg once daily, Day 14, median, read-out: tmax): 3 h | AUC(0-t) ([1]; oral, 20 mg once daily (Treatment I), Day 1, geom. mean, n = 7): 24.3 µg·h/mL | AUC ([1]; oral, 20 mg once daily, Day 14, geom. mean): 40.1 µg·h/mL | half-life ([1]; oral, 20 mg once daily, Day 14, geom. mean, read-out: t1/2, z (converted)): 19.3 h | AUC(0-t) ([1]; oral, 60 mg once daily (Treatment J, n = 7), Day 1, geom. mean): 69.2 µg·h/mL | AUC ([1]; oral, 60 mg once daily, Day 14, geom. mean): 115 µg·h/mL | half-life ([1]; oral, 60 mg once daily, Day 14, geom. mean, read-out: t1/2, z (converted)): 19.7 h | AUC(0-t) ([1]; oral, 120 mg once daily (Treatment K, n = 8), Day 1, geom. mean): 138 µg·h/mL | AUC ([1]; oral, 120 mg once daily, Day 14, geom. mean): 221 µg·h/mL | half-life ([1]; oral, 120 mg once daily, Day 14, geom. mean, read-out: t1/2, z (converted)): 19.3 h | AUC(0-t) ([1]; oral, 240 mg once daily (Treatment L, n = 7), Day 1, geom. mean): 270 µg·h/mL | AUC ([1]; oral, 240 mg once daily, Day 14, geom. mean): 465 µg·h/mL | half-life ([1]; oral, 240 mg once daily, Day 14, geom. mean, read-out: t1/2, z (converted)): 19.8 h | half-life ([1]; oral, based on the results of the single and repeat dose studies, read-out: Mean apparent terminal half-life (converted)): ~20 h | Tmax ([1]; po, after 14-days of repeated once daily oral administrations, across cohorts, read-out: median Tmax): 3 to 4 h | Dose proportionality regarding AUCτ resp. AUC0-24 and Cmax ([1]; repeated doses, graphical inspections): dose proportionality | Non-linearity with the time and dose ([1]; repeated oral administrations at 20, 60, 120, and 240 mg/d): No evidence of non-linearity with the time and dose was observed | Kp (total muscle concentration divided by plasma concentration) ([2]; 20 mg once daily): 0.0808 (65.3) (ng/g)/(ng/ml) | Kp (total muscle concentration divided by plasma concentration) ([2]; 60 mg once daily): 0.0640 (22.6) (ng/g)/(ng/ml) | Kp (total muscle concentration divided by plasma concentration) ([2]; 120 mg once daily): 0.0636 (49.9) (ng/g)/(ng/ml) | Kp (total muscle concentration divided by plasma concentration) ([2]; 240 mg once daily): 0.0440 (30.0) (ng/g)/(ng/ml) | Dose proportionality of median unbound and total concentrations in quadriceps muscle ([2]; 20-240 mg once daily): appeared dose proportional | Kp, range of geometric mean ratios across doses ([2]; dose range 20-240 mg): 0.04-0.08 (ng/g)/(ng/mL) | Kp at 3 h ([2]; male, human, quadriceps muscle (unbound) / plasma, oral, dose range 20-240 mg, read-out: Kpu, range of geometric mean ratios across doses): 0.0081 to 0.0106 | Kp ([2]; male, human, oral, 20 mg once daily): 0.0106 | Kp ([2]; male, human, oral, 60 mg once daily): 0.01 | Kp ([2]; male, human, oral, 120 mg once daily): 0.0081 | Kp ([2]; male, human, oral, 240 mg once daily): 0.0081 | Tolerability ([3]; at the doses and dose regimens tested): well tolerated | Serious adverse events ([3]; single doses up to 400 mg and repeated doses up to 240 mg/d for 14 days): No serious adverse events were reported
